Test results reported in ChEMBL document CHEMBL1201862, “PubChem BioAssay data set” (2004).
Several values for one entry are separate records, joined by “and”; a condition that tells them apart may be missing. Equal values may be shown once. Activity calls are given as the source filed them.

Tests used:
[1] = target: T1, Polyadenylate-binding protein 1 (Homo sapiens, UniProt P11940); assay: MLLE binding blockers, Cy5 peptide tracer – biochemical, fluorescence polarization, Cy5-PAM2 peptide, secondary, miRNA deadenylation inhibitor project, dose response (AID 602260); type: functional; settings: read-out: IC50_Mean
[2] = target: T1, Polyadenylate-binding protein 1; assay: MLLE domain peptide-binding blockers, IC50 – biochemical, fluorescence polarization, FITC-PAM2 peptide, dose response (AID 602259); type: functional; settings: read-out: IC50_Mean
Cytochrome P450 2D6 = Cytochrome P450 2D6 (Homo sapiens, UniProt P10635);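 note: CYP2D6 member of a cytochrome P450 panel assay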
Genome polyprotein = Genome polyprotein (dengue virus type 2, UniProt P29990); assay: flavivirus cap methylation enzyme inhibition – biochemical, confirmation dose response, primary screen (AID 588689); type: functional
[3] = tested on: Streptococcus sp. 'group A'; assay: Streptococcus pyogenes SK(-)GAS viability under kanamycin – luminescence, BacTiterGlo, confirmation, counter-screen for streptokinase expression inhibitor project, dose response (AID 1900); type: functional, organism-based
Streptokinase A = target: T2, Streptokinase A (Streptococcus pyogenes serotype M1, UniProt P10520); assay: viability-normalized secreted streptokinase activity reduction – plasminogen activation absorbance, OD405, dose response (AID 1914); type: functional, Streptococcus pyogenes M1 GAS;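 note: secreted streptokinase activity via plasminogen activation per viability signal from cell pellet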
T2 sequence (P10520 whole entry): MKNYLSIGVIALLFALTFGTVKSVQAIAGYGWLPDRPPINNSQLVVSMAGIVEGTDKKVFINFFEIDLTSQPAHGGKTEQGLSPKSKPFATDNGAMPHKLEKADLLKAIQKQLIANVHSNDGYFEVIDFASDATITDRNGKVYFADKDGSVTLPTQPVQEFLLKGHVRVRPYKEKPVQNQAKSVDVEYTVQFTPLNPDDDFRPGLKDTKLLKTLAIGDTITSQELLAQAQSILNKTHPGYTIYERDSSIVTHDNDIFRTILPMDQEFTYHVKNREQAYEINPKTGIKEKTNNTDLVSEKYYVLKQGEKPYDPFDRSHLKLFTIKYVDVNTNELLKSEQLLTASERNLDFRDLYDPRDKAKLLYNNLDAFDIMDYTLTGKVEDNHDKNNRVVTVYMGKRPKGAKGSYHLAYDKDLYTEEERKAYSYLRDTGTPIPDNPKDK

Streptococcus = assay: GAS UMAA2166 growth inhibition – luminescence, BacTiterGlo, counter-screen for streptokinase expression inhibitor project, dose response (AID 1915); type: functional, organism-based;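 note: potency for reduction of bacterial viability or growth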
INS1 = assay: INS-1E survival protection against cytokine death – cell-based, luminescence, retest, dose response (AID 449756); type: functional; settings: Rattus norvegicus;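 note: cell death triggered by IL-1 beta plus TNF-alpha plus IFN-gamma mixture; protective hits raise ATP signal compared with cytokine alone wells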
[4] = target: T3, Heat shock factor protein 1 (Mus musculus, UniProt P38532); assay: decrease of HSF1-responsive luciferase luminescence – cell-based, NIH3T3, dose retest, confirmation (AID 2382); type: functional;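 note: NIH3T3 fibroblasts with HSF1-driven luciferase reporter stressed by proteasome inhibitor MG132; luminescence from HSF1-driven luciferase expression after 8 hours of MG132 stress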
T3 sequence (P38532 whole entry): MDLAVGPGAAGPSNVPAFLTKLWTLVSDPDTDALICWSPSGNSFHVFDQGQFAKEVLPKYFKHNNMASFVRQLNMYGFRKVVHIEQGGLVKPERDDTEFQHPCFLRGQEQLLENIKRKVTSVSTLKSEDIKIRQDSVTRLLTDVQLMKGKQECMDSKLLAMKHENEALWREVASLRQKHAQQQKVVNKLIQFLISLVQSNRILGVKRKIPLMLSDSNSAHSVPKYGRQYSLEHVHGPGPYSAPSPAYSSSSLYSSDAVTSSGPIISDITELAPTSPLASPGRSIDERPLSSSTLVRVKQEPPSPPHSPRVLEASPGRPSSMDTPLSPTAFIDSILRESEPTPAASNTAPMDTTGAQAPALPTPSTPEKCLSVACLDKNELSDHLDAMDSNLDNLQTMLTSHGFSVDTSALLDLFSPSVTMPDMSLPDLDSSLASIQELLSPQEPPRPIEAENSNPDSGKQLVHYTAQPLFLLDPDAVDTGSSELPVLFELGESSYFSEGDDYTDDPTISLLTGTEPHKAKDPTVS

Cytochrome P450 2C9 = Cytochrome P450 2C9 (Homo sapiens, UniProt P11712)
Cytochrome P450 2C19 = Cytochrome P450 2C19 (Homo sapiens, UniProt P33261); assay: Cytochrome panel assay with activity outcomes. Panel member name: p450-cyp2c19 Compounds with AC50 equal or less than 10 uM are considered active; type: functional; settings: read-out: AC50
Cytochrome P450 3A4 = Cytochrome P450 3A4 (Homo sapiens, UniProt P08684);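 note: CYP3A4 tested as one member of a cytochrome P450 panel screen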
H9c2 = assay: cells; type: functional, cell-based; settings: Rattus norvegicus, H9c2, Myocardium;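 note: confirmatory concentration-response retest of ultra-high-throughput screening hits for modulation of myocardial damage; cell death induced by hydrogen peroxide oxidative stress; compound pretreatment for 60 min then peroxide exposure for 2 h; potency is for protecting the cells against peroxide damage rather than for killing them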
Cytochrome P450 1A2 = target: T4, Cytochrome P450 1A2 (Homo sapiens, UniProt P05177);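 note: PubChem cytochrome P450 panel assay, CYP1A2 panel member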
T4 sequence (P05177 whole entry): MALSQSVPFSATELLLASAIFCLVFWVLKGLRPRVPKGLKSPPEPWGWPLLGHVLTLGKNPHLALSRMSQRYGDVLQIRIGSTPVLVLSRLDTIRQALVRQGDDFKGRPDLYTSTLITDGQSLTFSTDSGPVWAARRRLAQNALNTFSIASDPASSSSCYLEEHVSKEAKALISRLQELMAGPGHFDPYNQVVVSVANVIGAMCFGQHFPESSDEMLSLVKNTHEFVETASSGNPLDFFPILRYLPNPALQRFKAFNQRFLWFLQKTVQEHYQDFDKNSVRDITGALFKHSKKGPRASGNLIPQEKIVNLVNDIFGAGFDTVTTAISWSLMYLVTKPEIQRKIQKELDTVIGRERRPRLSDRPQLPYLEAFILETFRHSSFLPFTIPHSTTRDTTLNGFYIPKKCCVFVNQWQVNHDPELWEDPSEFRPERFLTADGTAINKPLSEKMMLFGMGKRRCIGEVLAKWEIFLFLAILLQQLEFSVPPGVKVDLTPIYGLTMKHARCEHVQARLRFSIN

[5] = Luminescence Cell-Based Dose Response HTS to Identify Activators of Luciferase Translation or Activity in H4 […] Cells. [Related pubchem assays: 1829 (Project Summary), 1814 (Primary HTS)]; type: functional
H4 = assay: Luminescence Cell-Based Dose Response HTS to Identify Activators of 5'UTR Stem-Loop Driven Prion Protein mRNA Translation in H4 Neuroglioblastoma Cells. [Related pubchem assays: 1829 (Project Summary), 1814 (Primary HTS)]; type: functional; settings: Homo sapiens
[6] = luciferase reporter signal suppression in cells – H4 neuroglioma cells, luminescence, dose response (AID 1990); type: functional, cell-based
[7] = Luminescence Cell-Based Dose Response HTS to Identify Inhibitors of 5'UTR Stem-Loop Driven Prion Protein mRNA Translation in H4 Neuroglioblastoma Cells. [Related pubchem assays: 1827 (Project Summary), 1813 (Primary HTS)]; type: functional
[8] = alpha-synuclein stem-loop luciferase translation blockers – H4 neuroglioma cells, luminescence, confirmation (AID 1988); type: functional, cell-based

Row | SMILES | IC50 [1] | IC50 [2] | AC50 (Cytochrome P450 2D6) | further results
1 | COc1cc(C(=S)N2CCOCC2)cc(OC)c1OS(=O)(=O)c1ccc(C)cc1 | > 66 µM (inactive) | > 66 µM (inactive) |  | 
2 | OCCN1CCN(CC/C=C2\c3ccccc3Sc3ccc(C(F)(F)F)cc32)CC1 [E-FLUPENTIXOL] |  |  | 6.31 µM (inconclusive) and 31.6 µM (inconclusive) | 
3 | COc1ccc2c([N+](=O)[O-])c(Cl)[nH]c2c1 |  |  |  | IC50 (Genome polyprotein): > 100 µM (active)
4 | CCN(CC)c1ccc(/C=N/NC(=S)NCc2ccccc2)c(O)c1 |  |  |  | EC50 [3]: 49.2 µM (active); EC50 (Streptokinase A): > 150 µM (not active); EC50 (Streptococcus): > 150 µM (not active); AC50 (INS1): 0.712 µM (active)
5 | O=C(CNC(=O)C1CCCCC1)NC1=NCCS1 | > 66 µM (inactive) | > 66 µM (inactive) |  | EC50 [4]: > 195 µM (not active)
6 | CC(=O)c1c(C)cc(C)c(CSc2nc(C)cc(=O)[nH]2)c1C | > 66 µM (inactive) | > 66 µM (inactive) |  | 
7 | O=C(/C=C\c1ccc(O)c(O)c1)OCCc1ccccc1 |  |  | 39.8 µM (inconclusive) | AC50 (Cytochrome P450 2C9): 39.8 µM (inconclusive)
8 | O=C(CSc1nnc(-c2cccnc2)o1)Nc1ccccc1F | > 66 µM (inactive) | > 66 µM (inactive) |  | 
9 | COC(=O)CCC(=O)OC1(C)C(=O)C2=CN(Cc3ccccc3)C(c3ccc(OC)cc3)=CC2=C(Br)C1=O (stereo not given) |  |  |  | IC50 (Genome polyprotein): 39.1 µM (active)
10 | S=C(Nc1ccc(Br)cc1Cl)Nn1cnnc1 | > 66 µM (inactive) | > 66 µM (inactive) |  | 
11 | C(=N\N(c1ccccc1)c1ccccc1)/c1ccc2c(c1)OCO2 |  |  | 10 µM (inconclusive) | AC50 (Cytochrome P450 2C19): 2.51 µM (inconclusive); AC50 (Cytochrome P450 3A4): 15.8 µM (inconclusive); AC50 (Cytochrome P450 2C9): 8.91 µM (inconclusive)
12 | O=C1c2ccccc2NC(c2ccc(Cl)cc2Cl)N1O (stereo not given) |  |  | 14.1 µM (inconclusive) | IC50 (H9c2): > 79 µM (inactive); AC50 (Cytochrome P450 2C9): 25.1 µM (inconclusive)
13 | COC(=O)C1=C(C)OC(N)=C(C#N)C1C1CCCCC1 (stereo not given) |  |  | 31.6 µM (inconclusive) | AC50 (Cytochrome P450 1A2): 15.8 µM (inconclusive)
14 | O=C1/C(=C/c2cccnc2)SC(=S)N1c1ccc(F)cc1 | > 66 µM (inactive) | > 66 µM (inactive) |  | 
15 | COc1ccc(-c2cc(C(=O)N3CCN(c4ccccn4)CC3)c3ccccc3n2)cc1 |  |  |  | EC50 [5]: > 120 µM (not active); EC50 (H4): 7.36 µM (active)
16 | COc1c2c(c3c(c1OC)c(=O)c1ccccc1n3C)OCO2 | > 66 µM (inactive) | 41.7 µM (inactive) |  | 
17 | COc1ccc(CONS(=O)(=O)c2ccc(NC(C)=O)cc2)cc1Cl |  |  | 3.55 µM (inconclusive) | 
18 | CCOC(=O)C1=C(O)C(=O)N(Cc2ccccc2)C1 |  |  | 31.6 µM (inconclusive) | 
19 | O=C(N/N=C/c1cnc(N2CCCCC2)s1)c1ccc(C(F)(F)F)cc1 |  |  |  | EC50 [6]: 12 µM (active); EC50 [7]: > 120 µM (not active); EC50 [8]: 9.6 µM (active); AC50 (INS1): 4.54 µM (active)
20 | Cc1ccc(NC(=O)C2(NC(=O)c3cccc(N4C(=O)CSC4c4ccccc4)c3)CCCCC2)cc1 (stereo not given) |  |  | 1.12 µM (inconclusive) | EC50 [6]: > 120 µM (not active); EC50 [7]: > 120 µM (not active); EC50 [8]: > 120 µM (not active)
21 | COc1cc(C2c3sc(O)nc3SC3C(=O)N(c4ccc(Br)cc4)C(=O)C32)ccc1O (stereo not given) | > 66 µM (inactive) | > 66 µM (inactive) |  | 
22 | CCCCC#Cc1nc(NC)c2ncn([C@@H]3O[C@@H](CO)[C@H](O)[C@H]3O)c2n1 |  |  | 31.6 µM (inconclusive) | AC50 (Cytochrome P450 2C19): 3.16 µM (inconclusive); AC50 (Cytochrome P450 1A2): 31.6 µM (inconclusive)
